# Like-named read-outs stand apart in the source and are kept apart here.
# Columns and labels:
# [1] = Stability of analytes in rat plasma under various storage conditions; type: in vitro ADME; settings: for Stability Post-Preparation: 12 h after sample preparation at 4 °C; for Stability Short-Term / Stability Long-Term / Stability Three Freeze-Thaw: rat plasma; for Stability Short-Term: room temperature 4 h; for Stability Long-Term: storage for 2 weeks; for Stability Three Freeze-Thaw: three freeze–thaw cycles at −20 °C
# Method: The stability of six analytes in rat plasma was estimated under different storage conditions. […] Post-preparative stability of analytes also implied that there was no obvious degradation when samples were kept at 4 °C for 12 h. In addition, all compounds remained stable for two weeks at […].
# The stability of six compounds in rat plasma including freeze and thaw stability (three freeze–thaw cycles at −20 °C), long-term stability (storage for 2 weeks at −80 °C), room temperature stability (storage for 4 h at ambient temperature), and post-preparation stability […] All stability testing QC samples were determined by using the calibration curve of freshly prepared standard samples.
# [2] = Pharmacokinetic study in rats after single oral administration of S. officinalis extract (UHPLC-MS/MS of plasma); type: in vivo, Sprague-Dawley rats; settings: for Cmax / AUC(0-inf) / AUC(0-t) / Tmax / half-life: rat plasma, single oral dose of S. officinalis extract 0.015 g/kg, n = 12, mean ± SD; for time of first peak of mean plasma concentration-time curve (double-peak phenomenon) / time of second peak of mean plasma concentration-time curve (double-peak phenomenon): rats, after oral administration of S. officinalis extract, Figure 4
# Method: The UHPLC-MS/MS method was successfully used in the pharmacokinetic studies of six analytes after single dose administration of S. officinalis extract in rats. Based on the body surface area calculations of people and the animals and equivalent dose conversion calculations, the dosage of the rats was 0.015 g/kg. The half-time (t1/2), maximum plasma concentration (Cmax), time to reach Cmax (Tmax), and area under concentration–time curve (AUC0→t and AUC0→∞) were calculated via non-compartmental analysis (Table 6). The pharmacokinetic parameters of six components were reckoned by means of non-compartmental analysis using DAS 2.0 (Shanghai, China).
# The experimental protocol was permitted by the Animal Ethics Committee of Harbin Medical University and conformed to the principles for the Care and Use of Laboratory Animals. Twelve male Sprague-Dawley rats (Weight 200 ± 20 g) were provided by the Laboratory Animal Centre of Harbin Medical University (Harbin, China). Each rat was fasted for 12 h before giving the drug and had free water supply even during the experiment. The S. officinalis extract was dissolved in water. A single dose of the S. officinalis extract (0.015 g/kg) was administrated to the rats. Blood (0.3 mL) was gained from the retinal venous plexus at 0, 0.083, 0.25, 0.5 1.0, 1.5, 2.0, 3.0, 4.0, 6.0, 8.0, 12.0 and 24.0 h after dosing. The plasma was immediately separated by centrifugation at 12000 rpm for 5 min at […].
# Ten microliters of IS (1040.0 ng/mL) solution and 100 μL of methanol were added to 100 μL aliquot of plasma sample and vortexed for 30 s. The mixture was extracted with 3 mL ethyl acetate by being vortex-mixed for 1 min. The supernatant was separated and evaporated to dryness by N2 blowing at 40 °C after centrifuging at 3800 rpm for 5 min. The residue was reconstituted with 100 μL of methanol, and then vortex-mixed for 2 min and filtered by a 0.22 μm nylon 66 organic membrane. This was followed by injection of 5 μL aliquot of the solution into the UHPLC-MS/MS system (Agilent Technologies, Santa Clara, CA, USA).
# The maximum concentration (Cmax) and the time to attain it (Tmax) were observed directly from the measured data. The elimination rate constant (Ke) was calculated by linear regression of the terminal points in a semi-log plot of the plasma concentration against time. The elimination half-life (t1/2) was calculated using the formula t1/2 = 0.693/Ke. The area under plasma concentration–time curve (AUC0→t) to the last measurable plasma concentration (Ct) was estimated by using the linear trapezoidal rule. The area under the plasma concentration–time curve to time infinity (AUC0→∞) was calculated as: AUC0→∞ = AUC0→t + Ct/Ke. The pharmacokinetic parameters of six analytes were reckoned by non-compartmental analysis using DAS 2.0 (Mathematical Pharmacology Professional Committee of China, Shanghai, China).
# [3] = male, Sprague-Dawley, rat, plasma, po, 0.015 g/kg, read-out: Cmax
Stability Post-Preparation ([1]; high QC spiked concentration),Stability Post-Preparation ([1]; low QC spiked concentration),Stability Post-Preparation ([1]; medium QC spiked concentration),Stability Short-Term ([1]; high QC spiked concentration),Stability Short-Term ([1]; low QC spiked concentration),Stability Short-Term ([1]; medium QC spiked concentration),Stability Long-Term ([1]; high QC spiked concentration),Stability Long-Term ([1]; low QC spiked concentration),Stability Long-Term ([1]; medium QC spiked concentration),Stability Three Freeze-Thaw ([1]; high QC spiked concentration),Stability Three Freeze-Thaw ([1]; low QC spiked concentration),Stability Three Freeze-Thaw ([1]; medium QC spiked concentration),"Cmax [2, 3]","AUC(0-inf) ([2]; male, Sprague-Dawley)","AUC(0-t) ([2]; male, Sprague-Dawley)","Tmax ([2]; male, Sprague-Dawley)","half-life ([2]; male, Sprague-Dawley)",Cmax [2],time of first peak of mean plasma concentration-time curve (double-peak phenomenon) [2],time of second peak of mean plasma concentration-time curve (double-peak phenomenon) [2],SMILES
3.95 % RE,7.45 % RE,2.23 % RE,4.55 % RE,9.63 % RE,7.81 % RE,−6.75 % RE,4.88 % RE,2.71 % RE,2.07 % RE,6.80 % RE,3.84 % RE,315 ± 22.5 ng/mL,1300 ± 193 ng·h/mL,1210 ± 120 ng·h/mL,1.58 ± 0.2 h,7.32 ± 2.74 h,314.5 ± 22.5 ng/mL,,,"C[C@@H]1CC[C@]2(C(=O)O[C@@H]3O[C@H](CO)[C@@H](O)[C@H](O)[C@H]3O)CC[C@]3(C)C(=CC[C@@H]4[C@@]5(C)C[C@@H](O)[C@H](O)C(C)(C)[C@@H]5CC[C@]43C)[C@@H]2[C@]1(C)O [IV, rosamultin]"
−3.03 % RE,8.48 % RE,5.23 % RE,2.56 % RE,−4.77 % RE,−3.67 % RE,3.06 % RE,9.86 % RE,6.95 % RE,2.28 % RE,−9.67 % RE,3.99 % RE,212 ± 11.8 ng/mL,794 ± 152 ng·h/mL,733 ± 94.1 ng·h/mL,0.58 ± 0.2 h,7.35 ± 3.95 h,211.5 ± 11.8 ng/mL,,,"CC1CCC2(C(=O)O)CCC3(C)C(=CCC4C5(C)C(O)C(O)C(O)C(C)(C)C5CCC43C)C2C1(C)O (stereo not drawn) [V, 1β-hydroxyeuscaphic acid]"
−9.95 % RE,−2.07 % RE,3.53 % RE,2.44 % RE,4.27 % RE,6.27 % RE,2.03 % RE,2.43 % RE,−6.57 % RE,2.51 % RE,6.07 % RE,10.19 % RE,745 ± 85.7 ng/mL,3320 ± 429 ng·h/mL,2880 ± 303 ng·h/mL,0.92 ± 0.2 h,11.6 ± 3.07 h,744.7 ± 85.7 ng/mL,0.5 to 1.5 h,4 to 8 h,"C[C@@H]1CC[C@]2(C(=O)O[C@@H]3O[C@H](CO)[C@@H](O)[C@H](O)[C@H]3O)CC[C@]3(C)C(=CC[C@@H]4[C@@]5(C)CC[C@H](O[C@@H]6OC[C@H](O)[C@H](O)[C@H]6O)C(C)(C)[C@@H]5CC[C@]43C)[C@@H]2[C@]1(C)O [I, ziyuglycoside I]"
3.04 % RE,5.22 % RE,4.11 % RE,2.47 % RE,−5.94 % RE,4.60 % RE,2.24 % RE,−3.19 % RE,2.08 % RE,2.74 % RE,2.66 % RE,−2.95 % RE,527 ± 64 ng/mL,2660 ± 601 ng·h/mL,2300 ± 417 ng·h/mL,0.83 ± 0.26 h,8.99 ± 3.04 h,526.6 ± 64.0 ng/mL,0.5 to 1.5 h,4 to 8 h,"CC1CCC2(C(=O)OC3OC(CO)C(O)C(O)C3O)CCC3(C)C(=CCC4C5(C)CCC(O)C(C)(C)C5CCC43C)C2C1(C)O [II, 3β,19α-dihydroxyurs-12-en-28-oic-acid 28-β-D-glucopyranosyl ester]"
1.10 % RE,−1.34 % RE,−2.48 % RE,−2.42 % RE,−5.54 % RE,−7.66 % RE,4.31 % RE,3.75 % RE,−5.18 % RE,−3.38 % RE,−7.72 % RE,−5.29 % RE,318 ± 47.6 ng/mL,1230 ± 193 ng·h/mL,1140 ± 150 ng·h/mL,1.33 ± 0.26 h,6.86 ± 2.91 h,317.9 ± 47.6 ng/mL,0.25 h,< 1.5 h,"CC1=C2C3=CCC4C5(C)CCC(OC6OCC(O)C(O)C6O)C(C)(C)C5CCC4(C)C3(C)CCC2(C(=O)OC2OC(CO)C(O)C(O)C2O)CCC1C [III, 3β-[(α-L-arabinopyranosyl)oxy]-urs-12,18(19)-dien-28-oic acid β-D-glucopyranosyl ester]"
4.85 % RE,3.18 % RE,9.78 % RE,3.26 % RE,−10.78 % RE,2.34 % RE,5.28 % RE,−2.07 % RE,2.79 % RE,−1.64 % RE,2.74 % RE,6.61 % RE,243 ± 19.9 ng/mL,1110 ± 98.1 ng·h/mL,1030 ± 73.4 ng·h/mL,1.17 ± 0.26 h,7.72 ± 1.22 h,243.2 ± 19.9 ng/mL,0.5 to 1.5 h,4 to 8 h,"C=C1[C@H]2C3=CC[C@@H]4[C@@]5(C)C[C@@H](O)[C@@H](O)C(C)(C)[C@@H]5CC[C@@]4(C)[C@]3(C)CC[C@@]2(C(=O)O[C@@H]2O[C@H](CO)[C@@H](O)[C@H](O)[C@H]2O)CC[C@H]1C [VI, alpinoside]"
